# Measured values taken from US10023558B2, “Compounds” (CHIESI FARMACEUTICI S.P.A., priority 2016, dated 2018).
# Target: T1, human neutrophil elastase (HNE) (Homo sapiens, UniProt P08246)
# T1 construct: purchased Sigma E8140
# T1 sequence (P08246 30-247 limits assumed): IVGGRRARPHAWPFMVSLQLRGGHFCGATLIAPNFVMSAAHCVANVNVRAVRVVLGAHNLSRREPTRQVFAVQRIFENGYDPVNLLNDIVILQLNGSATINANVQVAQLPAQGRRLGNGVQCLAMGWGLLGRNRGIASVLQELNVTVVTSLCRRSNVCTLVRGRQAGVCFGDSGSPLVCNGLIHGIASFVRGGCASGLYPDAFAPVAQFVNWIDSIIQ
# Assay: HNE Enzyme Assay (fluorogenic peptide substrate MeOSuc-Ala-Ala-Pro-Val-AMC)
# Assay type: biochemical
# Details: human leukocyte elastase 0.00072 U/mL, substrate 100 μM, 25° C., 30 minutes, at least two separate experiments; read-out: HNE inhibition (IC50 values)
# In short: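 Human leukocyte elastase (0.00072 U/mL) with 100 μM MeOSuc-AAPV-AMC in Tris pH 7.5 buffer with NaCl, CaCl2, Brij-35, 1% DMSO, 30 min at 25° C, stopped with soybean trypsin inhibitor. AMC fluorescence (ex 380/em 460 nm); IC50 from concentration-response as % inhibition of control, at least two experiments.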
row,IC50,Compound
1,< 1 nM,"Cc1c(-c2ccnn2-c2ccc(C#N)cc2)n(C(=O)N[C@@H](C)C(=O)N2CCC(N(C)C)CC2)c(=O)n1-c1cccc(C(F)(F)F)c1 [Example 19, 5-[2-(4-Cyano-phenyl)-2H-pyrazol-3-yl]-4-methyl-2-oxo-3-(3-trifluoromethyl-phenyl)-2,3-dihydro-imidazole-1-carboxylic acid [(S)-2-(4-dimethylamino-piperidin-1-yl)-1-methyl-2-oxo-ethyl]-amide]"
2,1 to 10 nM,"Cc1c(-c2ccnn2-c2ccc(C#N)cc2)n(C(=O)N[C@H]2CC[C@@H]([N+](C)(C)C)CC2)c(=O)n1-c1cccc(C(F)(F)F)c1 [Example 45, (Cis-4-{[5-[2-(4-cyano-phenyl)-2H-pyrazol-3-yl]-4-methyl-2-oxo-3-(3-trifluoromethyl-phenyl)-2,3-dihydro-imidazole-1-carbonyl]-amino}-cyclohexyl)-trimethyl-ammonium benzene sulfonate]"
3,< 1 nM,"Cc1c(-c2ccnn2-c2ccc(C#N)cc2)n(C(=O)N[C@@H](C)C(=O)N(C)CC2CCN(C)CC2)c(=O)n1-c1cccc(C(F)(F)F)c1 [Example 18, 5-[2-(4-Cyano-phenyl)-2H-pyrazol-3-yl]-4-methyl-2-oxo-3-(3-trifluoromethyl-phenyl)-2,3-dihydro-imidazole-1-carboxylic acid {(S)-1-[methyl-(1-methyl-piperidin-4-ylmethyl)-carbamoyl]-ethyl}-amide]"
4,< 1 nM,"Cc1c(-c2ccnn2-c2ccc(C#N)cc2)n(C(=O)N[C@@H](C)c2ccc(C[N+](C)(C)C)cc2)c(=O)n1-c1cccc(C(F)(F)F)c1 [Example 58, [4-((S)-1-{[5-[2-(4-Cyano-phenyl)-2H-pyrazol-3-yl]-4-methyl-2-oxo-3-(3-trifluoromethyl-phenyl)-2,3-dihydro-imidazole-1-carbonyl]-amino}-ethyl)-benzyl]-trimethyl-ammonium benzene sulfonate]"
5,< 1 nM,"Cc1c(-c2nccn2-c2ccc(C#N)cc2)n(C(=O)NC2CCN(C(=O)C[N+](C)(C)C)CC2)c(=O)n1-c1cccc(C(F)(F)F)c1 [Example 94, [2-(4-{[1-(4-Cyano-phenyl)-5′-methyl-2′-oxo-1′-(3-trifluoromethyl-phenyl)-1′,2′-dihydro-1H-[2,4′]biimidazolyl-3′-carbonyl]-amino}-piperidin-1-yl)-2-oxo-ethyl]-trimethyl-ammonium benzene sulfonate]"
6,< 1 nM,"CC[n+]1ccc([C@H](C)NC(=O)n2c(-c3ccnn3-c3ccc(C#N)cc3)c(C)n(-c3cccc(C(F)(F)F)c3)c2=O)cc1 [Example 42, 4-((S)-1-{[5-[2-(4-Cyano-phenyl)-2H-pyrazol-3-yl]-4-methyl-2-oxo-3-(3-trifluoromethyl-phenyl)-2,3-dihydro-imidazole-1-carbonyl]-amino}-ethyl)-1-ethyl-pyridinium benzene sulfonate]"
7,< 1 nM,"Cc1c(-c2ccnn2-c2ccc(C#N)cc2)n(C(=O)N[C@H]2CC[C@H](NC(=O)OC(C)(C)C)CC2)c(=O)n1-c1cccc(C(F)(F)F)c1 [Example 8, (Trans-4-{[5-[2-(4-cyano-phenyl)-2H-pyrazol-3-yl]-4-methyl-2-oxo-3-(3-trifluoromethyl-phenyl)-2,3-dihydro-imidazole-1-carbonyl]-amino}-cyclohexyl)-carbamic acid tert-butyl ester]"
8,< 1 nM,"Cc1c(-c2ccnn2-c2ccc(C#N)cc2)n(C(=O)N[C@@H](C)c2ccncc2)c(=O)n1-c1cccc(C(F)(F)F)c1 [Example 5, 5-[2-(4-Cyano-phenyl)-2H-pyrazol-3-yl]-4-methyl-2-oxo-3-(3-trifluoromethyl-phenyl)-2,3-dihydro-imidazole-1-carboxylic acid ((S)-1-pyridin-4-yl-ethyl)-amide]"
9,< 1 nM,"CC[N+](C)(C)[C@H]1CC[C@H](NC(=O)n2c(-c3ccnn3-c3ccc(C#N)cc3)c(C)n(-c3cccc(C(F)(F)F)c3)c2=O)CC1 [Example 44, (Trans-4-{[5-[2-(4-cyano-phenyl)-2H-pyrazol-3-yl]-4-methyl-2-oxo-3-(3-trifluoromethyl-phenyl)-2,3-dihydro-imidazole-1-carbonyl]-amino}-cyclohexyl)-ethyl-dimethyl-ammonium benzene sulfonate]"
10,< 1 nM,"Cc1c(-c2ccnn2-c2ccc(C#N)cc2)n(C(=O)N[C@H]2C[C@H]3CC[C@@H](C2)[N+]3(C)C)c(=O)n1-c1cccc(C(F)(F)F)c1 [Example 36, (1S,3R,5R)-3-{[5-[2-(4-Cyano-phenyl)-2H-pyrazol-3-yl]-4-methyl-2-oxo-3-(3-trifluoromethyl-phenyl)-2,3-dihydro-imidazole-1-carbonyl]-amino}-8,8-dimethyl-8-azonia-bicyclo[3.2.1]octane benzene sulfonate]"
11,< 1 nM,"Cc1c(-c2ccnn2-c2ccc(C#N)cc2)n(C(=O)NC(C)(C)c2cc[n+](C)cc2)c(=O)n1-c1cccc(C(F)(F)F)c1 [Example 47, 4-(1-{[5-[2-(4-Cyano-phenyl)-2H-pyrazol-3-yl]-4-methyl-2-oxo-3-(3-trifluoromethyl-phenyl)-2,3-dihydro-imidazole-1-carbonyl]-amino}-1-methyl-ethyl)-1-methyl-pyridinium benzene sulfonate]"
12,< 1 nM,"Cc1c(-c2ccnn2-c2ccc(C#N)cc2)n(C(=O)NC2CCN(C(=O)CC[N+](C)(C)C)CC2)c(=O)n1-c1cccc(C(F)(F)F)c1 [Example 65, [3-(4-{[5-[2-(4-Cyano-phenyl)-2H-pyrazol-3-yl]-4-methyl-2-oxo-3-(3-trifluoromethyl-phenyl)-2,3-dihydro-imidazole-1-carbonyl]-amino}-piperidin-1-yl)-3-oxo-propyl]-trimethyl-ammonium benzene sulfonate]"
13,< 1 nM,"Cc1c(-c2ccnn2-c2ccc(C#N)cc2)n(C(=O)N[C@@H](C)C(=O)N2CCN(C)CC2)c(=O)n1-c1cccc(C(F)(F)F)c1 [Example 11, 5-[2-(4-Cyano-phenyl)-2H-pyrazol-3-yl]-4-methyl-2-oxo-3-(3-trifluoromethyl-phenyl)-2,3-dihydro-imidazole-1-carboxylic acid [(S)-1-methyl-2-(4-methyl-piperazin-1-yl)-2-oxo-ethyl]-amide]"
14,< 1 nM,"Cc1c(-c2ccnn2-c2ccc(C#N)cc2)n(C(=O)N[C@@H](C)C(=O)N(C)CC[N+](C)(C)C)c(=O)n1-c1cccc(C(F)(F)F)c1 [Example 71, {2-[((S)-2-{[5-[2-(4-Cyano-phenyl)-2H-pyrazol-3-yl]-4-methyl-2-oxo-3-(3-trifluoromethyl-phenyl)-2,3-dihydro-imidazole-1-carbonyl]-amino}-propionyl)-methyl-amino]-ethyl}-trimethyl-ammonium benzene sulfonate]"
